Experimental data from US20130001162A1, “Apparatus, System, and Method for Forward Osmosis in Water Reuse” (priority 2011, published 2013).

Assay: not given
Conditions: stated with the literature report; cited from earlier work

Structure (SMILES) | log D
C[C@]12CC[C@@H]3c4ccc(O)cc4CC[C@H]3[C@@H]1CC[C@@H]2O [estradiol] | 3.94
C[C@]12CC[C@@H]3c4ccc(O)cc4CC[C@H]3[C@@H]1CCC2=O [estrone] | 3.46

Assay: Rejection of micropollutants by low pressure reverse osmosis (LPRO), diluted DS as feed
Conditions: permeate of LPRO at 15 bar

concentration, Permeate LPRO [µg/L] | Structure (SMILES)
<0.01 | CC(C(=O)O)c1cccc(Oc2ccccc2)c1 (stereo not drawn) [Fenoprofen]
<0.01 | Cc1ccc(C)c(OCCCC(C)(C)C(=O)O)c1 [Gemfibrozil]
<0.01 | CC(C(=O)O)c1cccc(C(=O)c2ccccc2)c1 (stereo not drawn) [Ketoprofen]
0.08 | Cc1ncc([N+](=O)[O-])n1CCO [Metronidazole]

Second part, the molecule before the results:

Structure (SMILES) | concentration, Permeate LPRO [µg/L]
C1COCCO1 [1,4-dioxane] | <0.5
C#C[C@]1(O)CC[C@H]2[C@@H]3CCc4cc(O)ccc4[C@H]3CC[C@@]21C [17α-ethynilestradiol] | <0.001
CC(=O)Nc1ccc(O)cc1 [Acetaminophen] | 0.31
CC(C)(c1ccc(O)cc1)c1ccc(O)cc1 [Bisphenol A] | 0.058
Cn1c(=O)c2c(ncn2C)n(C)c1=O [Caffeine] | 0.03
NC(=O)N1c2ccccc2C=Cc2ccccc21 [Carbamazepine] | 0.02
